In patent US20090069429A1 (SGP & SONS AB, priority 2006, published 2009):
Entries after “also recorded” stand apart in the source; their conditions may differ.

Key:
muscle = test: Muscle performance after oral AKG (general conclusions); assay type: in vivo, rat
Protocol: (§1) Animals were kept in a thermostatically controlled chamber, containing the equipment to measure contractile force in isolated rat skeletal muscle, i.e. a computer, analogue-digital transducer, amplifier, differential amplifier, stimulator, […] and 5% carbon dioxide.
(§2) Thermostatically controlled chamber, maintained at 30° C., contained a glass diffuser for efficient oxygenation of buffer, a mounting/stimulation block with 2 pins to fix portion of fibula in place and 2 silver stimulating electrodes.

[1] = tested on: fast-twitch extensor digitorum longus muscle (EDL); test: Contractile endurance and force of isolated extensor digitorum longus muscle from rats given AKG, continuous electrical stimulation at 90 Hz; assay type: in vivo, rat
Protocol: FIG. 5 presents contracting characteristics of extensor digitorum longus muscle in uremic rats+test component (n=3) and control rats+test component (n=2) incubated in Krebs Ringer solution and uremic rats+test component (n=3) incubated in Uremic Buffer (30 min.), 90 Hz, 1 ms and <90V.
as §1, §2

[2] = tested on: slow-twitch soleus muscle; test: Contractile endurance and force of isolated soleus muscle from rats given AKG, continuous electrical stimulation at 40 Hz; assay type: in vivo, rat
Protocol: FIG. 4 presents contracting characteristics of soleus muscles in uremic rats +test component (n=10), control rats+placebo (n=8), control rats+test component (n=4) incubated in Krebs Ringer physiological solution (30 min. incubation) and electrically stimulated at 40 Hz (32 mA, 1 ms, <90V).
as §1, §2

soleus muscles = conditions: 48-h T3 subcutaneously; 90 Hz continuous stimulation; cited from earlier work
[3] = AKG-administered uremic rats, Krebs Ringer vs Uremic buffer incubation

SMILES	effect on muscle performance in terms of endurance during sustained contraction (muscle; AKG administration)	peripheral fatigue during sustained contraction at normal working frequency (muscle; oral AKG)	period within which muscle function improves (muscle; oral preparation) [days]	endurance performance of extensor digitorum longus muscle ([1]; AKG administered uremic rats vs placebo administered uremic rats)	endurance profile of extensor digitorum longus muscle (buffer effect) [1, 3]	slowing of Rate of Force Generation ([1]; fast-twitch muscles, oral treatment 21 days or less) [%]	Maximal Isometric Force improvement ([1]; fast-twitch muscles, oral treatment 21 days or less, vs untreated controls) [%]	endurance profile of soleus muscle (buffer effect) [2, 3]	endurance of soleus muscles ([2]; control rats given AKG vs placebo, incubated in Krebs Ringer)	slowing of Rate of Force Generation ([2]; slow-twitch muscles, oral treatment 21 days or less) [%]	Maximal Isometric Force improvement ([2]; slow-twitch muscles, oral treatment 21 days or less, vs untreated controls) [%]	rate of fatigue of soleus muscle (soleus muscles)
O=C(O)CCC(=O)C(=O)O [AKG, alpha-ketoglutarate]	beneficial effect	reduce	≤ 21	improved performance	better endurance profile	~8.5	28	better endurance profile	improves the endurance; also recorded: improved endurance	~130	12	
N[C@@H](Cc1cc(I)c(Oc2ccc(O)c(I)c2)c(I)c1)C(=O)O [T3, 3,5,3′-triiodothyronine]												rapid rate of fatigue
